Results from US8569279B2, “Method for modulating claudin mediated functions” (Sucampo AG, priority 2008, dated 2013).

Columns and labels:
[1] = tested on: epithelial tight junction, mouse intestine (jejunum mucosa); experiment: Tissue conductance and dilution potentials in normal mouse intestines after Compound A in drinking water; assay type: in vivo; settings: male C57BL/6 mice, 10 μM in drinking water for 7 to 14 days, jejunum mucosa in chamber, FIG. 1
Experimental: (Method) Male C57BL/6 mice (7-8 weeks old) were administered with 10 μM Compound A in the drinking water and fed standard diet for 7 to 14 days. During the period, the mice could drink the water freely. At the conclusion of this period, the mice were sacrificed and the intestines were removed. Approximately 5 cm sections were cut from tip of the jejunum. The intestine section was opened from ventral side, and then it was washed several Limes with Ringer solution. The mucosa of the intestine was carefully stripped from the serosa using forceps. The mucosa was mounted in a standard chamber (5 mm in diameter of exposed surface area) and bathed with buffer solution. Transepithelial short-circuit current (Isc) was measured and total tissue conductance was determined by measuring the current deflections resulting from a 1 mV/min transepithelial pulse and applying Ohm's law. When stable measurement of Isc was achieved, the buffer solution was replaced with potassium-free solution. The solution in the luminal bath were then replaced with the solution containing […], 150 mM LiCl, 150 mM KCl, 75 mM MgCl2 and 75 mM CaCl2, in turn, and dilution potentials in each solution were measured.

claudin-15 protein = experiment: Expression of claudin proteins in mouse intestine (immunofluorescence staining); assay type: in vivo; settings: 10 μM in drinking water for 7 to 14 days, immunofluorescence staining of frozen slices, FIG. 2
Experimental: (Method) Treatment of mice and removal of intestine were conducted by similar way mentioned above. The removed intestine was frozen in liquid nitrogen and frozen slices were prepared. Expressions and intracellular distribution of claudin-15 protein were determined with immunofluorescence staining. […] (Conclusion) Continuous administration of Compound A caused expression changes of tight junction proteins, such as the decrease of claudin-15 which induces changes of electrophysiological property of the tight junction. Decrease of the expression of claudin-15 in the tight junction resulted to enhance the tightness of the tight junction and strengthen the epithelial sheet against toxic substances.

[2] = tested on: skin ulcer and/or bedsore animal model, db/db mice; experiment: Skin ulcer healing in genetically-diabetic mice (db/db mice); assay type: in vivo, mouse; settings: topical twice a day for 12 days; for Ulcer area, %: Day 13 relative to Day 1, mean ± standard error, control 70.0 ± 5.7
Source text: Female BKS.Cg−+Lepr^db/+Lepr^db/Jcl mice (db/db mice, SPF; CLEA Japan, Inc.), genetically-diabetic mice, were used for the present study. After the removal of the dorsal hair, the skin covering an area of 1.5×1.5 cm centered on the dorsal median was excised using ophthalmic scissors under anesthesia to make a skin ulcer and/or bedsore animal model. Then the excised skin area (ulcer area) was covered with porous film dressing measuring 4×4 cm. The dosing preparation was applied to the ulcer area at a dosage volume of 0.1 mL per site. The application was performed twice a day for 12 days from the day of preparation of the ulcers. Compound B: (−)-7-{(2R,4aR,5R,7aR)-2-[(3S)-1,1-difluoro-3-methylpentyl]-2-hydroxy-6-oxooctahydrocyclopenta[b]pyran-5-yl}heptanoic acid at 10 or 30 micro-g/site was applied to the ulcer per time. The same volume of the vehicle (physiological saline solution containing 1% polysorbate 80: 1% PS80) was applied to the animals in the control group. The day of the start of the application was defined as Day 1. On the Day 1 and Day 13, the frontal edge of the epidermis or the regeneration epidermis of each ulcer was traced on a plastic sheet. The traced ulcer area was measured with an area-line meter. The ulcer area (%) on Day 13 was calculated on the basis of the ulcer area on Day 1. Group mean values with standard errors were calculated for ulcer area (%).

Row | Compound | dilution potential of univalent cations compared to no-treatment group [1] | total tissue conductance compared to no-treatment group [1] | expression of claudin-15 protein (claudin-15 protein) | ulcer healing as compared to the control group ([2]; 10 and 30 micro-g/site) | Ulcer area, % ([2]; 10 micro-g/site) | Ulcer area, % ([2]; 30 micro-g/site)
1 | CCCCC(F)(F)[C@@]1(O)CC[C@H]2[C@@H](CC(=O)[C@@H]2CCCCCCC(=O)O)O1 [Compound A, (−)-7-[(2R,4aR,5R,7aR)-2-(1,1-Difluoropentyl)-2-hydroxy-6-oxooctahydrocyclopenta[b]pyran-5-yl]heptanoic acid] | decrease | decrease | decreased | – | – | –
2 | CC[C@H](C)CC(F)(F)[C@@]1(O)CC[C@H]2[C@@H](CC(=O)[C@@H]2CCCCCCC(=O)O)O1 [Compound B, (−)-7-{(2R,4aR,5R,7aR)-2-[(3S)-1,1-difluoro-3-methylpentyl]-2-hydroxy-6-oxooctahydrocyclopenta[b]pyran-5-yl}heptanoic acid] | – | – | – | significantly accelerated the ulcer healing | 43.1 ± 4.2 % | 41.1 ± 3.1 %
